Results on 22 compounds are retold here after patent publication EP4707277A1, “NOVEL HETEROCYCLIC AMINE DERIVATIVES AND PHARMACEUTICAL COMPOSITION COMPRISING SAME” (Daewoong Pharmaceutical Co., Ltd., priority 2023, dated 2024).

The structures appear in SMILES notation. Where two headings read alike, the source gives them in different places.

One assay deals with T1, BTK (Homo sapiens, UniProt Q06187).
T1 construct: purchased Signalchem B10-10H
The assay is described as follows: Inhibitory activity against BTK, ADP-Glo Kinase system (Promega). It is filed as biochemical. The procedure, abridged: (§1)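 ADP-Glo luminescent ADP detection with recombinant human ITK (4 ng/reaction) or BTK (10 ng/reaction) and poly(Glu4,Tyr1) substrate at 0.2 µg/µl. Buffer: Tris pH 7.5, MgCl2, MnCl2, BSA, DTT. ATP 1 mM or Km (BTK 10 µM, ITK 25 µM); 1% DMSO; 1 h at 30°C; IC50 from curve fit.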
For orientation: In ADP-Glo the light output rises with the ADP produced.

In another assay the target is T2, ITK (Homo sapiens, UniProt Q08881).
T2 construct: purchased Signalchem I13-11G-10
T2 sequence (Q08881 1-620): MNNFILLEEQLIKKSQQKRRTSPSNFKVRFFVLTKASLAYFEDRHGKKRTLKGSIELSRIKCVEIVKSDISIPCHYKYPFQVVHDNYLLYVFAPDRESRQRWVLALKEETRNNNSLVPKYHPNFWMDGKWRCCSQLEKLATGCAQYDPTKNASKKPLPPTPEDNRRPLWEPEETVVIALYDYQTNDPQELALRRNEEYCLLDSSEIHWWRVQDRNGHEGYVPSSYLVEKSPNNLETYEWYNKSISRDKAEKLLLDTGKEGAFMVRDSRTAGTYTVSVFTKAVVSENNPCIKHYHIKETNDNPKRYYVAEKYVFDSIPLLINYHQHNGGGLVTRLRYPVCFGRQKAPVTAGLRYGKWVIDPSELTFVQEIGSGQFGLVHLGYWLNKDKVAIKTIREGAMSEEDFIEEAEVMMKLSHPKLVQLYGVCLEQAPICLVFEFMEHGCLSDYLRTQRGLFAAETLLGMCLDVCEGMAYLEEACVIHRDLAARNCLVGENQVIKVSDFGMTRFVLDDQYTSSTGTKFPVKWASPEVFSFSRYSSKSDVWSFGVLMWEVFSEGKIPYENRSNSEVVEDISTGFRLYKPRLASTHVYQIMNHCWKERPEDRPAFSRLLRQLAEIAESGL
The assay is described as follows: Inhibitory activity against ITK, ADP-Glo Kinase system (Promega). It is filed as biochemical. The procedure, abridged: as §1

Setting [1] is: 1mM ATP, read-out: BTK IC50(nM) 1mM ATP.
Setting [2] is: 1mM ATP, read-out: ITK IC50(nM) 1mM ATP.
The mark [3] stands for this setting: Km ATP (BTK: 10 uM), read-out: BTK IC50(nM) Km ATP.
Setting [4] is: Km ATP (ITK: 25uM), read-out: ITK IC50(nM) Km ATP.

T1 sequence (Q06187 whole entry): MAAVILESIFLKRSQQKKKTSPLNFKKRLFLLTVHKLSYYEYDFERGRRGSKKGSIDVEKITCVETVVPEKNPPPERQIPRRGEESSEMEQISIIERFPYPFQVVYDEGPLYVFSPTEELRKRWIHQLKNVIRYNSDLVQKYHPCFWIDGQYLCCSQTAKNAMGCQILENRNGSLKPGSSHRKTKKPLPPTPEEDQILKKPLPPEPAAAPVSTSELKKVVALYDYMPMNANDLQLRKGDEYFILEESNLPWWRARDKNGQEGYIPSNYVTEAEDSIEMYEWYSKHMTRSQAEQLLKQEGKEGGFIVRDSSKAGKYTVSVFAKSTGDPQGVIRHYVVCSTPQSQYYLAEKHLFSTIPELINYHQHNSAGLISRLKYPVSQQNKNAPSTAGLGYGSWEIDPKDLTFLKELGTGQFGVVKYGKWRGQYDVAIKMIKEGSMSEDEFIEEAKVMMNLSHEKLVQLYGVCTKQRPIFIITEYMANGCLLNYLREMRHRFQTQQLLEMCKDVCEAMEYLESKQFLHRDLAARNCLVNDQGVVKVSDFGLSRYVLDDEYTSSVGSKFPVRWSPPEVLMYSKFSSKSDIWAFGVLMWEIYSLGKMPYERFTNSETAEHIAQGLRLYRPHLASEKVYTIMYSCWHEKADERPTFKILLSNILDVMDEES

For orientation: IC50 means the concentration that gives 50% inhibition. Take `C=CC(=O)N1C[C@@H](Oc2nc(Nc3ncc(C)s3)cc3c2ccn3CCC)C[C@@H]1C` [Example 187, 1-((2S,4S)-2-methyl-4-((6-((5-methylthiazol-2-yl)amino)-1-propyl-1H-pyrrolo[3,2-c]pyridin-4-yl)oxy)pyrrolidin-1-yl)prop-2-en-1-one]: the IC50 on BTK (setting [1]) and on ITK (setting [2]) was no more than 20 nM in each case.

`C=CC(=O)Nc1ccc(F)c(-c2nc(Nc3ncc(C)s3)cc3c2ccn3C(C)C)c1` [Example 59, N-(4-fluoro-3-(1-isopropyl-6-((5-methylthiazol-2-yl)amino)-1H-pyrrolo[3,2-c]pyridin-4-yl)phenyl)acrylamide]: the IC50 on BTK (setting [1]) and on ITK (setting [2]) was no more than 20 nM throughout.

`C=CC(=O)N1CC[C@@H](Oc2nc(Nc3ncc(C)s3)cc3c2ccn3CC2CC2)C1` [Example 144, (R)-1-(3-((1-(cyclopropylmethyl)-6-((5-methylthiazol-2-yl)amino)-1H-pyrrolo[3,2-c]pyridin-4-yl)oxy)pyrrolidin-1-yl)prop-2-en-1-one]: the half-inhibitory concentration (IC50) at BTK (setting [1]) and at ITK (setting [2]) was greater than 500 nM each time.

Turning to `C=CC(=O)N1C[C@@H](Oc2nc(Nc3ncc(C)s3)cc3c2ccn3C(C)C)C[C@H]1C` [Example 87, 1-((2R,4S)-4-((1-isopropyl-6-((5-methylthiazol-2-yl)amino)-1H-pyrrolo[3,2-c]pyridin-4-yl)oxy)-2-methylpyrrolidin-1-yl)prop-2-en-1-one], the IC50 at BTK (setting [1]) and at ITK (setting [2]) was no more than 20 nM throughout.

For `C=CC(=O)N1C[C@H](F)[C@H](Oc2nc(Nc3ncc(C)s3)cc3c2ccn3CC(C)C)C1` [Example 105, 1-((3S,4R)-3-fluoro-4-((1-isobutyl-6-((5-methylthiazol-2-yl)amino)-1H-pyrrolo[3,2-c]pyridin-4-yl)oxy)pyrrolidin-1-yl)prop-2-en-1-one], the 50% inhibitory concentration (IC50) on BTK (setting [1]) and on ITK (setting [2]) was no more than 20 nM in each case.

As to `C=CC(=O)N1CC[C@H](Oc2nc(Nc3cc(C(F)(F)F)ncn3)cc3c2ccn3C(C)C)C1` [Example 95, (S)-1-(3-((1-isopropyl-6-((6-(trifluoromethyl)pyrimidin-4-yl)amino)-1H-pyrrolo[3,2-c]pyridin-4-yl)oxy)pyrrolidin-1-yl)prop-2-en-1-one], the values for the IC50 at BTK (setting [1]) and on ITK (setting [2]) were no more than 20 nM and 100 to 500 nM, respectively.

Consider `C=CC(=O)N1C[C@H](F)[C@H](Oc2nc(Nc3ncc(C)s3)cc3c2ccn3CCCF)C1` [Example 191, 1-((3S,4R)-3-fluoro-4-((1-(3-fluoropropyl)-6-((5-methylthiazol-2-yl)amino)-1H-pyrrolo[3,2-c]pyridin-4-yl)oxy)pyrrolidin-1-yl)prop-2-en-1-one], for which the IC50 on BTK (setting [1]) and on ITK (setting [2]) was no more than 20 nM each time.

For `C=CC(=O)N1CC=C(c2nc(Nc3ncc(C)s3)cc3c2ccn3CC(C)C)CC1` [Example 6, 1-(4-(1-isobutyl-6-((5-methylthiazol-2-yl)amino)-1H-pyrrolo[3,2-c]pyridin-4-yl)-3,6-dihydropyridin-1(2H)-yl)prop-2-en-1-one], the IC50 is 20 to 100 nM on BTK (setting [1]), no more than 20 nM on BTK (setting [3]), 100 to 500 nM on ITK (setting [2]) and no more than 20 nM at ITK (setting [4]).

In the case of `C=CC(=O)N1CCC[C@H](Oc2nc(Nc3ncc(C)s3)cc3c2ccn3CC(C)CC)C1` (stereo partly drawn) [Example 172, 1-((3S)-3-((1-(2-methylbutyl)-6-((5-methylthiazol-2-yl)amino)-1H-pyrrolo[3,2-c]pyridin-4-yl)oxy)piperidin-1-yl)prop-2-en-1-one], the IC50 at BTK (setting [1]) was no more than 20 nM; at ITK (setting [2]) it was 20 to 100 nM.

Take `C=CC(=O)N1CCC12CC(Oc1nc(Nc3ncc(C)s3)cc3c1ccn3CC(C)C)C2` (stereo not shown) [Example 137, 1-(6-((1-isobutyl-6-((5-methylthiazol-2-yl)amino)-1H-pyrrolo[3,2-c]pyridin-4-yl)oxy)-1-azaspiro[3.3]heptan-1-yl)prop-2-en-1-one]: the IC50 on BTK (setting [1]) and at ITK (setting [2]) was no more than 20 nM throughout.

As to `C=CC(=O)N1CC=C(c2nc(Nc3ncc(C)s3)cc3c2ccn3CCc2ccccc2)CC1` [Example 16, 1-(4-(6-((5-methylthiazol-2-yl)amino)-1-phenethyl-1H-pyrrolo[3,2-c]pyridin-4-yl)-3,6-dihydropyridin-1(2H)-yl)prop-2-en-1-one], the IC50 on BTK (setting [3]) and on ITK (setting [4]) was no more than 20 nM throughout.

In the case of `C=CC(=O)N1C2C=C(c3nc(Nc4ncc(C)s4)cc4c3ccn4C3CC3(F)F)CC1CC2` (stereo not shown) [Example 31, 1-(3-(1-(2,2-difluorocyclopropyl)-6-((5-methylthiazol-2-yl)amino)-1H-pyrrolo[3,2-c]pyridin-4-yl)-8-azabicyclo[3.2.1]oct-2-en-8-yl)prop-2-en-1-one], the IC50 at BTK (setting [3]) and on ITK (setting [4]) was no more than 20 nM throughout.

As to `C=CC(=O)N1CC(C)(Oc2nc(Nc3ncc(C)s3)cc3c2ccn3CCOC)C1` [Example 168, 1-(3-((1-(2-methoxyethyl)-6-((5-methylthiazol-2-yl)amino)-1H-pyrrolo[3,2-c]pyridin-4-yl)oxy)-3-methylazetidin-1-yl)prop-2-en-1-one], the IC50 at BTK (setting [1]) and on ITK (setting [2]) was greater than 500 nM in each case.

Turning to `C#CC(=O)N1CC[C@H](Oc2nc(Nc3ncc(C)s3)cc3c2ccn3CC(C)C)C1` [Example 225, (S)-1-(3-((1-isobutyl-6-((5-methylthiazol-2-yl)amino)-1H-pyrrolo[3,2-c]pyridin-4-yl)oxy)pyrrolidin-1-yl)prop-2-yn-1-one], the half-inhibitory concentration (IC50) on BTK (setting [1]) and on ITK (setting [2]) was no more than 20 nM throughout.

For the compound `C=CC(=O)N1C[C@@H](F)[C@H](Oc2nc(Nc3ncc(C)s3)cc3c2ccn3CC2(C(F)(F)F)CC2)C1` [Example 120, 1-((3R,4R)-3-fluoro-4-((6-((5-methylthiazol-2-yl)amino)-1-((1-(trifluoromethyl)cyclopropyl)methyl)-1H-pyrrolo[3,2-c]pyridin-4-yl)oxy)pyrrolidin-1-yl)prop-2-en-1-one], the IC50 on BTK (setting [3]) and at ITK (setting [4]) was no more than 20 nM each time.

Consider `C=CC(=O)N1C[C@@H](F)[C@H](Oc2nc(Nc3ncc(C)s3)cc3c2ccn3C(C)C)C1` [Example 91, 1-((3R,4R)-3-fluoro-4-((1-isopropyl-6-((5-methylthiazol-2-yl)amino)-1H-pyrrolo[3,2-c]pyridin-4-yl)oxy)pyrrolidin-1-yl)prop-2-en-1-one], for which the IC50 on BTK (setting [1]) and on ITK (setting [2]) was no more than 20 nM each time.

With `C=CC(=O)N1CC(C)(Oc2nc(Nc3ncc(C)s3)cc3c2ccn3CC)C1` [Example 155, 1-(3-((1-ethyl-6-((5-methylthiazol-2-yl)amino)-1H-pyrrolo[3,2-c]pyridin-4-yl)oxy)-3-methylazetidin-1-yl)prop-2-en-1-one], the IC50 was no more than 20 nM on BTK (setting [1]) and 20 to 100 nM at ITK (setting [2]).

Turning to `C=CC(=O)Nc1cc(-c2nc(Nc3ncc(C)s3)cc3c2ccn3CCC(C)(C)C)c(F)cc1F` [Example 69, N-(5-(1-(3,3-dimethylbutyl)-6-((5-methylthiazol-2-yl)amino)-1H-pyrrolo[3,2-c]pyridin-4-yl)-2,4-difluorophenyl)acrylamide], the IC50 was in the range of 100 to 500 nM on BTK (setting [1]) and 20 to 100 nM at ITK (setting [2]).

As to `C=CC(=O)Nc1ccc(F)c(-c2nc(Nc3ncc(C)s3)cc3c2ccn3C2CCCC2)c1` [Example 70, N-(3-(1-cyclopentyl-6-((5-methylthiazol-2-yl)amino)-1H-pyrrolo[3,2-c]pyridin-4-yl)-4-fluorophenyl)acrylamide], the IC50 on BTK (setting [1]) was no more than 20 nM; on ITK (setting [2]), 20 to 100 nM.

On to `C=CC(=O)N1CCC[C@H]1COc1nc(Nc2ncc(C)s2)cc2c1ccn2CC(C)C` [Example 85, (S)-1-(2-(((1-isobutyl-6-((5-methylthiazol-2-yl)amino)-1H-pyrrolo[3,2-c]pyridin-4-yl)oxy)methyl)pyrrolidin-1-yl)prop-2-en-1-one], for which the IC50 on BTK (setting [1]) was 20 to 100 nM; on ITK (setting [2]), greater than 500 nM.

On to `C=CC(=O)N1C2C=C(c3nc(Nc4ncc(C)s4)cc4c3ccn4C(C)C)CC1CC2` (stereo not shown) [Example 29, 1-(3-(1-isopropyl-6-((5-methylthiazol-2-yl)amino)-1H-pyrrolo[3,2-c]pyridin-4-yl)-8-azabicyclo[3.2.1]oct-2-en-8-yl)prop-2-en-1-one], for which the IC50 at BTK (setting [3]) and on ITK (setting [4]) was no more than 20 nM each time.

For the compound `C=CC(=O)N1C[C@@H](F)[C@H](Oc2nc(Nc3ncc(C)s3)cc3c2ccn3CC2CC2)C1` [Example 108, 1-((3R,4R)-3-((1-(cyclopropylmethyl)-6-((5-methylthiazol-2-yl)amino)-1H-pyrrolo[3,2-c]pyridin-4-yl)oxy)-4-fluoropyrrolidin-1-yl)prop-2-en-1-one], the IC50 at BTK (setting [1]) and at ITK (setting [2]) was no more than 20 nM in each case.
